This passage reports T/C results from PubChem BioAssay AID248 (DTP/NCI, 2004).

The subject of this assay is L1210 leukemia ip in BDF1 mice, survival T/C. The assay can be described thus: NCI In Vivo Anticancer Drug Screen. Data for tumor model L1210 Leukemia (intraperitoneal) in B6D2F1 (BDF1) mice. The conditions noted are these: endpoint: mean survival time, higher = longer survival. The method in brief: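 Antitumor effect is assessed in tumor-bearing animals. Survival in the compound arm is compared with a vehicle-dosed control arm and expressed as their quotient.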

[1] abbreviates: dose: 50.0 mg/kg/injection, schedule: Q01DX009 (ip), vehicle: saline.
Where [2] appears, read: dose: 100.0 mg/kg/injection, schedule: Q01DX009 (ip), vehicle: saline.
The mark [3] stands for this setting: dose: 25.0 mg/kg/injection, schedule: Q01DX009 (ip), vehicle: Klucel (hydroxypropylcellulose) (HPC).
The mark [4] stands for this setting: dose: 100.0 mg/kg/injection, schedule: Q04DX003 (ip), vehicle: Klucel (hydroxypropylcellulose) (HPC).
Setting [5] is: dose: 200.0 mg/kg/injection, schedule: Q04DX003 (ip), vehicle: Klucel (hydroxypropylcellulose) (HPC).
Setting [6] is: dose: 100.0 mg/kg/injection, schedule: Q01DX009 (ip), vehicle: Klucel (hydroxypropylcellulose) (HPC).
Where [7] appears, read: dose: 200.0 mg/kg/injection, schedule: Q01DX009 (ip), vehicle: Klucel (hydroxypropylcellulose) (HPC).
The mark [8] stands for this setting: dose: 400.0 mg/kg/injection, schedule: Q01DX009 (ip), vehicle: Klucel (hydroxypropylcellulose) (HPC).
Where [9] appears, read: dose: 12.5 mg/kg/injection, schedule: Q04DX003 (ip), vehicle: Klucel (hydroxypropylcellulose) (HPC).
[10] abbreviates: dose: 25.0 mg/kg/injection, schedule: Q04DX003 (ip), vehicle: Klucel (hydroxypropylcellulose) (HPC).
The mark [11] stands for this setting: dose: 50.0 mg/kg/injection, schedule: Q04DX003 (ip), vehicle: Klucel (hydroxypropylcellulose) (HPC).
The mark [12] stands for this setting: dose: 100.0 mg/kg/injection, schedule: Q04DX002 (ip), vehicle: saline with Tween-80.
Where [13] appears, read: dose: 200.0 mg/kg/injection, schedule: Q04DX002 (ip), vehicle: saline with Tween-80.
Setting [14] is: dose: 400.0 mg/kg/injection, schedule: Q04DX002 (ip), vehicle: saline with Tween-80.

Molecules are shown by their SMILES. Values joined by “and” are separate entries in the source; they are usually repeats but may differ in a detail not shown here. Equal values may be shown once. Toxic doses and inconclusive results are not listed.

For the compound `C=CC1C[N+]2(SS(=O)(=O)O)CCC1CC2C(O)c1ccnc2ccc(OC)cc12` (configuration not stated), the T/C (dose: 18.8 mg/kg/injection, schedule: Q01DX009 (ip), vehicle: saline) is 91 % of control; the T/C (dose: 37.5 mg/kg/injection, schedule: Q01DX009 (ip), vehicle: saline) is 94 % of control; the T/C (dose: 75.0 mg/kg/injection, schedule: Q01DX009 (ip), vehicle: saline) is 88 % of control.

For the compound `CCC(CC)C(O)CC(O)CC(C)C` (configuration not stated), the T/C (dose: 25.0 mg/kg/injection, schedule: Q04DX003 (ip), vehicle: other) was 100 % of control; the T/C (dose: 50.0 mg/kg/injection, schedule: Q04DX003 (ip), vehicle: other) was 106 % of control; the T/C (dose: 100.0 mg/kg/injection, schedule: Q04DX003 (ip), vehicle: other) was 101 % of control.

`CC(C)(C)C(=O)c1nn[nH]n1`: the T/C under setting [1] was 91 % of control; the T/C (dose: 100.0 mg/kg/injection, schedule: Q01DX001 (ip), vehicle: saline) is 104 % of control; the T/C under setting [2] is 98 % of control; the T/C (dose: 200.0 mg/kg/injection, schedule: Q01DX001 (ip), vehicle: saline) was 102 % of control.

For `O=[N+]([O-])c1ccccc1C(c1ccc2ccccc2c1O)N1CCOCC1` (configuration not stated), the T/C runs as follows: (dose: 100.0 mg/kg/injection, schedule: Q01DX001 (ip), vehicle: saline sonified) 86 % of control; (dose: 200.0 mg/kg/injection, schedule: Q01DX001 (ip), vehicle: saline sonified) 91 % of control; (dose: 400.0 mg/kg/injection, schedule: Q01DX001 (ip), vehicle: saline sonified) 90 % of control.

Consider `COc1cccc(C2CCN(C)C2)c1` (configuration not stated), for which the T/C (dose: 6.25 mg/kg/injection, schedule: Q01DX009 (ip), vehicle: Klucel (hydroxypropylcellulose) (HPC)) is 110 % of control; the T/C (dose: 12.5 mg/kg/injection, schedule: Q01DX009 (ip), vehicle: Klucel (hydroxypropylcellulose) (HPC)) is 108 % of control; the T/C under setting [3] is 103 % of control; the T/C under setting [4] was 105 % of control; the T/C under setting [5] is 103 % of control.

As for `CCOC(=O)c1ccc(NC(=S)Nc2ccccc2)cc1N(CC)CC`, the T/C runs as follows: under setting [6], 101 % of control; under setting [7], 97 % of control; under setting [8], 104 % of control.

Consider `Oc1c(Cl)cc(Cl)cc1C=NCC1CCC(CN=Cc2cc(Cl)cc(Cl)c2O)CC1` (configuration not stated), for which the T/C is 92 % of control (dose: 100.0 mg/kg/injection, schedule: Q01DX009 (ip), vehicle: saline with Tween-80); 92 % of control (dose: 200.0 mg/kg/injection, schedule: Q01DX009 (ip), vehicle: saline with Tween-80); 94 % of control (dose: 400.0 mg/kg/injection, schedule: Q01DX009 (ip), vehicle: saline with Tween-80).

For the compound `CCCCCCCCCc1cc(=O)n(-c2ccc(C(=O)OCC)cc2)n1C`, the T/C is, setting by setting: under setting [9], 105 % of control; under setting [10], 102 % of control; under setting [11], 97 % of control.

For the compound `Nc1ccccc1SC1CC(=O)N(c2ccc(Br)cc2)C1=O` (configuration not stated), the T/C is, setting by setting: (dose: 100.0 mg/kg/injection, schedule: Q04DX002 (ip), vehicle: gum acacia) 95 % of control; (dose: 200.0 mg/kg/injection, schedule: Q04DX002 (ip), vehicle: gum acacia) 88 % of control; (dose: 400.0 mg/kg/injection, schedule: Q04DX002 (ip), vehicle: gum acacia) 95 % of control.

Consider `CCOC(=O)N(c1ccccc1)c1ccccc1`, for which the T/C is, setting by setting: (dose: 100.0 mg/kg/injection, schedule: Q04DX002 (ip), vehicle: Klucel (hydroxypropylcellulose) (HPC)) 106 % of control; (dose: 200.0 mg/kg/injection, schedule: Q04DX002 (ip), vehicle: Klucel (hydroxypropylcellulose) (HPC)) 106 % of control; (dose: 400.0 mg/kg/injection, schedule: Q04DX002 (ip), vehicle: Klucel (hydroxypropylcellulose) (HPC)) 98 % of control.

Consider `NCc1cccn1OCc1ccccc1`, for which the T/C reads like this: under setting [3], 108 % of control; (dose: 50.0 mg/kg/injection, schedule: Q01DX009 (ip), vehicle: Klucel (hydroxypropylcellulose) (HPC)) 108 % of control; under setting [6], 152 % of control.

Take `COc1cc2c(cc1OC)C(C)=[N+](C)CC2`: the T/C under setting [9] was 101 % of control, the T/C under setting [10] was 103 % of control and the T/C under setting [11] was 106 % of control.

For the compound `Cc1ccc(/C=C/[N+](=O)[O-])cc1`, the T/C by setting is: (dose: 6.25 mg/kg/injection, schedule: Q01DX009 (ip), vehicle: saline sonified) 100 % of control; (dose: 6.25 mg/kg/injection, schedule: Q04DX003 (ip), vehicle: Klucel (hydroxypropylcellulose) (HPC)) 97 % of control; (dose: 12.5 mg/kg/injection, schedule: Q01DX009 (ip), vehicle: saline sonified) 101 % of control; under setting [9], 97 % of control; (dose: 25.0 mg/kg/injection, schedule: Q01DX009 (ip), vehicle: saline sonified) 101 % of control; under setting [10], 93 % of control.

Turning to `CC(C)N(C(=O)C1C2C=CC(C2)C1C(=O)N(C(C)C)C(C)C)C(C)C` (configuration not stated), the T/C reads like this: (dose: 25.0 mg/kg/injection, schedule: Q04DX003 (ip), vehicle: saline with Tween-80) 98 % of control; (dose: 50.0 mg/kg/injection, schedule: Q04DX003 (ip), vehicle: saline with Tween-80) 98 % of control; (dose: 100.0 mg/kg/injection, schedule: Q04DX003 (ip), vehicle: saline with Tween-80) 106 % of control and 107 % of control.

In the case of `Oc1ccccc1COCc1ccccc1O`, the T/C was 104 % of control (dose: 100.0 mg/kg/injection, schedule: Q01DX001 (sc), vehicle: olive oil, sesame oil, peanut oil); 102 % of control (dose: 100.0 mg/kg/injection, schedule: Q04DX003 (sc), vehicle: olive oil, sesame oil, peanut oil); 98 % of control (dose: 200.0 mg/kg/injection, schedule: Q01DX001 (sc), vehicle: olive oil, sesame oil, peanut oil); 108 % of control (dose: 200.0 mg/kg/injection, schedule: Q04DX003 (sc), vehicle: olive oil, sesame oil, peanut oil); 100 % of control (dose: 400.0 mg/kg/injection, schedule: Q01DX001 (sc), vehicle: olive oil, sesame oil, peanut oil); 108 % of control (dose: 400.0 mg/kg/injection, schedule: Q04DX003 (sc), vehicle: olive oil, sesame oil, peanut oil).

Turning to `CCC(C(=O)O)c1ccccc1` (configuration not stated), the T/C was 93 % of control under setting [1]; 97 % of control under setting [2]; 89 % of control (dose: 100.0 mg/kg/injection, schedule: Q04DX003 (ip), vehicle: saline); 90 % of control (dose: 200.0 mg/kg/injection, schedule: Q01DX009 (ip), vehicle: saline); 90 % of control (dose: 200.0 mg/kg/injection, schedule: Q04DX003 (ip), vehicle: saline); 95 % of control (dose: 400.0 mg/kg/injection, schedule: Q04DX003 (ip), vehicle: saline).

`CC(C)(C)SC(=O)Cc1ccc([N+](=O)[O-])cc1`: the T/C reads like this: (dose: 50.0 mg/kg/injection, schedule: Q04DX002 (ip), vehicle: saline with Tween-80) 90 % of control; under setting [12], 100 % of control; under setting [13], 93 % of control; under setting [14], 87 % of control.

As for `CC(C)(C)C1(C)OCCCO1`, the T/C under setting [12] was 101 % of control, the T/C under setting [13] is 108 % of control and the T/C under setting [14] is 87 % of control.

For `COc1cc(N=CN(C)C)cc(OC)c1OC`, the T/C is, setting by setting: under setting [6], 101 % of control; under setting [4], 97 % of control; under setting [7], 103 % of control; under setting [5], 97 % of control; under setting [8], 103 % of control; (dose: 400.0 mg/kg/injection, schedule: Q04DX003 (ip), vehicle: Klucel (hydroxypropylcellulose) (HPC)) 93 % of control.

As for `ClCC1COC(c2ccccc2)O1` (configuration not stated), the T/C is, setting by setting: (dose: 5.8 mg/kg/injection, schedule: Q01DX Z (ip), vehicle: methylcellulose (MC)) 112 % of control; (dose: 8.8 mg/kg/injection, schedule: Q01DX Z (ip), vehicle: methylcellulose (MC)) 102 % of control; (dose: 13.3 mg/kg/injection, schedule: Q01DX Z (ip), vehicle: methylcellulose (MC)) 115 % of control; (dose: 20.0 mg/kg/injection, schedule: Q01DX Z (ip), vehicle: methylcellulose (MC)) 97 % of control.
